Literature values, collected in patent US10184942B2, “Natriuretic peptide receptor as a biomarker for diagnosis and prognosis of cancer” (UNIVERSITY OF SOUTH FLORIDA, priority 2011, dated 2019).

Test system: PCa cells
Conditions: in vitro and in mice

Compound: VD: vessel dilator, an ANP prohormone peptide (EVVPPQVLSEPNEEAGAALSPLPEVPPWTGEVSPAQR; Vessel dilator; UniProt P01160 56-92, looked up)
- proliferation of PCa cells: inhibit the proliferation

Compound: CC[C@H](C)[C@@H]1NC(=O)[C@H](CCCNC(=N)N)NC(=O)[C@H](CC(=O)O)NC(=O)[C@H](CCSC)NC(=O)[C@H](CCCNC(=N)N)NC(=O)CNC(=O)CNC(=O)[C@H](Cc2ccccc2)NC(=O)[C@@H](NC(=O)[C@H](CO)NC(=O)[C@H](CO)NC(=O)[C@H](CCCNC(=N)N)NC(=O)[C@H](CCCNC(=N)N)NC(=O)[C@H](CC(C)C)NC(=O)[C@@H](N)CO)CSSC[C@@H](C(=O)N[C@@H](CC(N)=O)C(=O)N[C@@H](CO)C(=O)N[C@@H](Cc2ccccc2)C(=O)N[C@@H](CCCNC(=N)N)C(=O)N[C@@H](Cc2ccc(O)cc2)C(=O)O)NC(=O)CNC(=O)[C@H](CC(C)C)NC(=O)CNC(=O)[C@H](CO)NC(=O)[C@H](CCC(N)=O)NC(=O)[C@H](C)NC(=O)CNC1=O [ANP, atrial natriuretic peptide]
- proliferation of PCa cells: inhibit the proliferation
